Data: article PMC2994711, “Homodimerization of the Death-Associated Protein Kinase Catalytic Domain: Development of a New Small Molecule Fluorescent Reporter” (PLoS ONE, 2010)
Read-outs that look alike come from different tables or passages of the source.

Key:
Type in all cases: binding
[1] = target: T1, DAPK catalytic domain (DAPKwt) (Homo sapiens, UniProt P53355); assay: Fluorescence polarization titration of fluorophore labeled ATP with DAPKwt; details: pH 8.8, labeled ATP 0.1 µM
T1 construct: encoding the DAPK catalytic domain (DAPKwt, open reading frame residues 1–285); Strep-tag (pASK-IBA3 vector; purified on streptactin resin) (C); made in house; host or cells: Escherichia coli DH5α
T1 sequence (P53355 1-285): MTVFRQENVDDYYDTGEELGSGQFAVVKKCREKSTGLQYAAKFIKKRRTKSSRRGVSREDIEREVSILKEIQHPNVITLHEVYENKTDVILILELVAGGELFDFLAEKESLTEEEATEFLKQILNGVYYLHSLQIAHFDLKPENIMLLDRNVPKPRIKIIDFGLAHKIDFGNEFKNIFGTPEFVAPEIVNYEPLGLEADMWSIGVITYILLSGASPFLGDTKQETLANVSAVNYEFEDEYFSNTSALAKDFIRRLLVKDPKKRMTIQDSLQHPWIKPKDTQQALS
Procedure: (§1) Titrations followed the same protocol as described under “ATP, ADP and substrate peptide titrations”, but under buffer conditions analogous to the ones listed under “nano-ESI-MS for the study of non-covalent complexes”. For investigations of the monomeric and the dimeric forms, NH4Ac concentrations were kept constant at 250 mM and 5 mM, respectively. To induce gradual monomerization of DAPK catalytic core, the NH4Ac concentration was stepwise augmented (5, 10, 25, 50, 100 and 250 mM) by the addition of a concentrated NH4Ac stock solution (1 M).
To determine the Kd values of γ-[6-Aminohexyl]-ATP-Atto495 (Jena Bioscience, Jena, Germany) its concentration was set to 0.1 µM, while the rest of the conditions were kept identical to the ones described above. Fluorescence polarization was recorded at an excitation and emission wavelength of 493 nm and 520 nm respectively.

[2] = target: T2, DAPK catalytic domain (DAPKwt, residues 1–285) (Homo sapiens, UniProt P53355); assay: Fluorescence polarization titration of the fluorescent probe with DAPKwt
T2 construct: encoding the DAPK catalytic domain (DAPKwt, open reading frame residues 1–285); Strep-tag (pASK-IBA3 vector; purified on streptactin resin) (C); made in house; host or cells: Escherichia coli DH5α
T2 sequence (P53355 1-285): as above
Procedure: (§2) Fluorescence polarization assays were performed using a Victor 3 apparatus (Perkin-Elmer Waltham, MA). The Lissamine Rhodamine B peptides based library (UMR 7200 CNRS, Strasbourg, France, Patent WO/2006/003330 [14]) was diluted in the assay buffer (50 mM HEPES, 150 mM KCl, 1 mM MgCl2, pH 7.5) to a working concentration of 0.2 µM. 15 µl of these dilutions were transferred to each well of the assay plate (Corning Costar 96-well black polystyrene plates, Model 3686, Corning, Acton, MA). All pipetting in HTS was performed on a Biomek® 2000 (Beckman Coulter, Fullerton, CA). Fluorescent polarization degrees (mFP) were measured at an excitation and emission wavelength of 530 and 610 nm, respectively. 15 µl of the assay buffer with DAPK, at a concentration of 4 µM, were added to each well. For each plate, background correction was performed with blank control wells containing no compounds.
(§3) All titration measurements were performed on a FlexStation 3 (Molecular Devices Union City, CA). The other experimental conditions were described in section “HTS of fluorescent peptides based library”. A twofold dilution cascade of the protein between 200 µM and 0.8 µM was prepared and 10 µl of these solutions were dispatched in 96-well assay plates. 10 µl of the probe solution (0.2 µM of CHPO 187-3-H11-para in assay buffer) were added to the wells and fluorescent polarization was recorded as specified before. Subsequently, 1 µl of concentrated ATP, ADP or substrate peptide (Tocris Bristol, UK) in assay buffer with 0.1 µM of the fluorescent probe was added to the wells, in order to subsequently obtain the following final concentrations of ATP, ADP or substrate peptide: 0.4, 0.8, 1.6, 3.2, 6.3, 12.5, 25, 50, and 1000 µM (the highest concentration was not performed for the peptide).
as §1

[3] = target: T3, mutant protein DAPKdel (ΔS52–S57) (Homo sapiens, UniProt P53355, DEL52-57); assay: Fluorescence polarization titration of the fluorescent probe with DAPKdel
T3 construct: encoding the DAPK catalytic domain (DAPKwt, open reading frame residues 1–285) or the mutant protein DAPKdel (ΔS52–S57); Strep-tag (pASK-IBA3 vector; purified on streptactin resin) (C); made in house; host or cells: Escherichia coli DH5α
T3 sequence (P53355 with tags, fused parts or gaps DEL52-57): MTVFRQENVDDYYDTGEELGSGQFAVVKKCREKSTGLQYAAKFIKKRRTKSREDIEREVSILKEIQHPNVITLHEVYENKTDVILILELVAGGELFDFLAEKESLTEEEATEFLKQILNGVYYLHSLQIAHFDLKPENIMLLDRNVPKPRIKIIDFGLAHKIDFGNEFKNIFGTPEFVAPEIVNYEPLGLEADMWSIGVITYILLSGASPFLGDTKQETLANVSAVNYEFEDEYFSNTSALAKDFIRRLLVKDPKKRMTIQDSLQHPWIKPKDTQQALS
Procedure: as §2, §3, §1

| Compound | Kd ([1]; 5 mM NH4Ac, read-out: Kd of the labeled ATP for the DAPKwt dimer) [µM] | Kd ([1]; 250 mM NH4Ac, read-out: Kd of the labeled ATP for the DAPKwt monomer) [µM] | Kd ([2]; 5 mM NH4Ac, pH 8.8, conditions favoring the dimer, probe 0.1 µM) [µM] | Kd ([2]; 50 mM HEPES, 150 mM KCl, 1 mM MgCl2, pH 7.5, absence of ATP or ADP) [µM] | Kd ([2]; 250 mM NH4Ac, pH 8.8, conditions favoring the monomer, probe 0.1 µM) [µM] | Kd ([2]; HEPES buffer pH 7.5, ATP or ADP to DAPK ratios higher than two (maximal effect)) [µM] | Kd ([3]; 5 mM NH4Ac, pH 8.8) [µM] | Kd ([3]; 250 mM NH4Ac, pH 8.8) [µM] | Kd ([3]; HEPES buffer pH 7.5, absence of ATP or ADP) [µM] | Kd ([3]; HEPES buffer pH 7.5, presence of ADP, ratio to DAPKdel higher than two) [µM] | Kd ([3]; HEPES buffer pH 7.5, presence of ATP, ratio to DAPKdel higher than two) [µM] |
| --- | --- | --- | --- | --- | --- | --- | --- | --- | --- | --- | --- |
| γ-[6-Aminohexyl]-ATP-Atto495 | 3.98 ± 0.22 | 0.29 ± 0.011 |  |  |  |  |  |  |  |  |  |
| CCN(CC)c1ccc2c(-c3ccc(S(=O)(=O)NCCC(=O)N[C@@H](CCCNC(=N)N)C(=O)N[C@@H](Cc4ccc5ccccc5c4)C(=O)N[C@@H](CCCN)C(N)=O)cc3S(=O)(=O)[O-])c3ccc(=[N+](CC)CC)cc-3oc2c1 [CHPO 187-3-H11-para] |  |  | 16.5 ± 1.2 | 30.9 ± 2.8 | 1.5 ± 0.2 | 6.4 ± 0.54 | 3.4 | 5.5 | 20 | 33 | 28 |
